Experimental data from ChEMBL document CHEMBL1133467, “Identification of novel inhibitors of urokinase via NMR-based screening” (J Med Chem, 2000).

Experiments:
[1] = molecular target: Urokinase-type plasminogen activator (Homo sapiens, UniProt P00749); assay: Inhibitory activity against Urokinase-type plasminogen activator
[2] = Acid dissociation constant (pKa) of the compound; format: physicochemical

IC50 [1] [µM] | pKa [2] | SMILES
7 | 11.4 | N=C(N)c1ccc(N)cc1
20 | 10.9 | N=C(N)Nc1ccccc1 [PHENYLGUANIDINE]
– | 7.4 | Nc1nc2cc(O)ccc2[nH]1
200 | 7.5 | Nc1nc2ccccc2[nH]1
